Data taken from patent US20250188069A1, “COMPOUNDS AND METHODS FOR DEGRADING CASEIN KINASE 1 ALPHA” (PIN THERAPEUTICS, INC., priority 2022, published 2025).
Where a name gives a salt, the structure may show the parent alone.

Legend:
MV-4-11 cells = assay: AML cell viability assay (RealTime-Glo); format: cell-based; conditions: Homo sapiens, MV4-11; IC50 class; MV-4-11 cells, RealTime-Glo after 44 hrs of treatment (TABLE 4); read-out: Cell viability classification
CK1α = CK1α (Homo sapiens, UniProt P48729+Q96SW2); assay: CK1α degradation, Western blot in MV-4-11 cells; format: cell-based; design: CK1α levels were determined in MV-4-11 cells using Jess (Protein Simple); host or cells: MV-4-11; conditions: % reduction of CK1α compared to DMSO, MV4-11 cells at 1 μM for 4 hours, read-out: CK1α degradation classification
CK1α, sequence (P48729 whole entry): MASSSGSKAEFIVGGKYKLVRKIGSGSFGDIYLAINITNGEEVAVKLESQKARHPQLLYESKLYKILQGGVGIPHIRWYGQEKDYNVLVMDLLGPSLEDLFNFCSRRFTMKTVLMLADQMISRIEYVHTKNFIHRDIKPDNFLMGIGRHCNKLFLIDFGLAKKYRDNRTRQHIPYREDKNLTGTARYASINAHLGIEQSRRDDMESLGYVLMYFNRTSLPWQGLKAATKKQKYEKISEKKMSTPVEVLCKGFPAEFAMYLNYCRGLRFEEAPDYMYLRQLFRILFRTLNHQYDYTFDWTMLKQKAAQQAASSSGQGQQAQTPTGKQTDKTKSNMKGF
CK1α, sequence (Q96SW2 whole entry): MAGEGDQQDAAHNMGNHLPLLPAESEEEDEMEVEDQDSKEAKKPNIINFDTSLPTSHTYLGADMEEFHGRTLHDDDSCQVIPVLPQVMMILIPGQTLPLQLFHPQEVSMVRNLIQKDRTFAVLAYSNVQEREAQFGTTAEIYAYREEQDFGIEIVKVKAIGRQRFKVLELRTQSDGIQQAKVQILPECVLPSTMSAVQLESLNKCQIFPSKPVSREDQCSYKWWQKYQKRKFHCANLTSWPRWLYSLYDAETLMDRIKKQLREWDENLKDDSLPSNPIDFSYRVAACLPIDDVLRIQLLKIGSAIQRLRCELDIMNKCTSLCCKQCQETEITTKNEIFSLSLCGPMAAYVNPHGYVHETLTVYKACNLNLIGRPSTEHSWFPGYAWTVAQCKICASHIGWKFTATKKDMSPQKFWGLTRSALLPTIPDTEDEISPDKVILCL
CK1α, sequence (Q16531 whole entry partner): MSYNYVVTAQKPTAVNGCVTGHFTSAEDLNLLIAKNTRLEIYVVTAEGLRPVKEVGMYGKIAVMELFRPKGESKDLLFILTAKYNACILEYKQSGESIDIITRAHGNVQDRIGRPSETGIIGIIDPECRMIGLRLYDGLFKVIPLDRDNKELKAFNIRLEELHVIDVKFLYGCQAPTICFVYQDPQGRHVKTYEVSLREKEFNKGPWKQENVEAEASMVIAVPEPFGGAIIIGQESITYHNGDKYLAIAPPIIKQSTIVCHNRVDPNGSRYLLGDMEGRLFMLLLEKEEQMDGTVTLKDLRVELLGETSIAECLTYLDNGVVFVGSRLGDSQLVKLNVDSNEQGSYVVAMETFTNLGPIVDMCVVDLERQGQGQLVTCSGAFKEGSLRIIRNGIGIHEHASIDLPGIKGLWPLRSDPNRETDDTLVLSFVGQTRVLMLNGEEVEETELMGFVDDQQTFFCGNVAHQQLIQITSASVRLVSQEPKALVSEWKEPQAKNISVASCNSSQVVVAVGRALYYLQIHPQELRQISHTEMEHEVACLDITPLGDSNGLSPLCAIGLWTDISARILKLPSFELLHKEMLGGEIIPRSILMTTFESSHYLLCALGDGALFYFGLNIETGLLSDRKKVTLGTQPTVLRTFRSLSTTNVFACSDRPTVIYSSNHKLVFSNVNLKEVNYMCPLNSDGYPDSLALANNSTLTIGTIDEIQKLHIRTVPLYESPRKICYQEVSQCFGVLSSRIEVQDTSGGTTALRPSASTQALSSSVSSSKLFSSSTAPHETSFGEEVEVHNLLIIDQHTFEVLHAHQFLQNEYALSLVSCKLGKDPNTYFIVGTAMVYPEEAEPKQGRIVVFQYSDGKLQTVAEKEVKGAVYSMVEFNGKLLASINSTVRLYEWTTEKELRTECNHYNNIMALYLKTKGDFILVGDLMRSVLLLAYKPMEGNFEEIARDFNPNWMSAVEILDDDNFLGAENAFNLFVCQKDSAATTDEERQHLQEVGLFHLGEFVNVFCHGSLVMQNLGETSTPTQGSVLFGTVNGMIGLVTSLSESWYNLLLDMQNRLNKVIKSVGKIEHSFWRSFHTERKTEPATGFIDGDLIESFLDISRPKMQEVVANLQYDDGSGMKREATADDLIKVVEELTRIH
Method: MM.1S and NCCIT cells were obtained from ATCC and grown in RPMI-1640 supplemented with 10% FBS. MV-4-11 cells were obtained from ATCC and grown in IMDM supplemented with 10% FBS. The cells were maintained at 37° C. under 5% CO2.
Compounds of the present disclosure was added to cells (final DMSO concentration of 0.1%) and incubated for 4 hours. CK1α levels were determined in MV-4-11 cells using Western blot analysis. Whole cell lysates were prepared in lysis buffer (1×RIPA buffer [Thermo, 89900], 2 mM MgCl2 [Sigma, M1028], 0.05% Benzonase [Sigma, E1014], 1× Pierce protease inhibitor tablets EDTA-free [Thermo, A32965]). […] of the lysates were analyzed using Western blot with antibodies against CK1α (Abcam, ab108296) and β-actin (R&D Systems, MAB8929).
The efficacy of CK1α degradation of other part of compounds of the present disclosure was determined by treating MV4-11 cells at 1 μM (Final DMSO concentration of 0.1%) for 4 hours. Protein levels relative to DMSO are calculated for CK1α. The compounds are classified based on the amount of CK1α degradation (% reduction of CK1α compared to DMSO) as follows. • A: Degradation is greater than or equal to 75%; • B: Degradation is less than 75% & greater than or equal to 50%; • C: Degradation is less than […]; • ND: not determined.

| SMILES | IC50 (MV-4-11 cells) | Dmax at 1 µM (CK1α) |
| --- | --- | --- |
| O=C1CCC(N2Cc3c(cccc3N(CCC3CC3)[C@H]3CC[C@H](NCC4(F)COC4)CC3)C2=O)C(=O)N1 (stereo partly drawn) [Compound 616, 3-{4-[(2-cyclopropylethyl)[(1r,4r)-4-{[(3-fluorooxetan-3-yl)methyl]amino}cyclohexyl]amino]-1-oxo-3H-isoindol-2-yl}piperidine-2,6-dione; trifluoro acetate] | < 0.1 µM | > 75% |
| C[C@]1(N)CC[C@@H](N(CCC2CC2)c2cccc3c2CN(C2CCC(=O)NC2=O)C3=O)CC1 (stereo partly drawn) [Compound 635, 3-{4-[(2-cyclopropylethyl)[(1s,4s)-4-amino-4-methylcyclohexyl]amino]-1-oxo-3H-isoindol-2-yl}piperidine-2,6-dione] | < 0.1 µM | > 75% |
| O=C1CCC(N2Cc3c(cccc3N(CCC3CC3)[C@H]3C[C@H](c4nnc[nH]4)C3)C2=O)C(=O)N1 (stereo partly drawn) [Compound 604, 3-{4-[(2-cyclopropylethyl)[(1s,3s)-3-(4H-1,2,4-triazol-3-yl)cyclobutyl]amino]-1-oxo-3H-isoindol-2-yl}piperidine-2,6-dione; formate] | < 0.1 µM | > 75% |
| O=C1CCC(N2Cc3c(cccc3N(CCC3CC3)[C@H]3CC[C@H](NCC4(F)CC4)CC3)C2=O)C(=O)N1 (stereo partly drawn) [Compound 612, 3-{4-[(2-cyclopropylethyl)[(1r,4r)-4-{[(1-fluorocyclopropyl)methyl]amino}cyclohexyl]amino]-1-oxo-3H-isoindol-2-yl}piperidine-2,6-dione] | < 0.1 µM | > 75% |

More lines, now with the values ahead:

| IC50 (MV-4-11 cells) | Dmax at 1 µM (CK1α) | SMILES |
| --- | --- | --- |
| 0.1 to 1 µM | 50 to 75% | C[C@]1(N)CC[C@H](N(CCC2CC2)c2cccc3c2CN(C2CCC(=O)NC2=O)C3=O)CC1 (stereo partly drawn) [Compound 634, 3-{4-[(2-cyclopropylethyl)[(1r,4r)-4-amino-4-methylcyclohexyl]amino]-1-oxo-3H-isoindol-2-yl}piperidine-2,6-dione] |
| < 0.1 µM | > 75% | O=C1CCC(N2Cc3c(cccc3N(CCC3CC3)[C@H]3C[C@@H](c4nnc[nH]4)C3)C2=O)C(=O)N1 (stereo partly drawn) [Compound 603, 3-{4-[(2-cyclopropylethyl)[(1s,3s)-3-(4H-1,2,4-triazol-3-yl)cyclobutyl]amino]-1-oxo-3H-isoindol-2-yl}piperidine-2,6-dione; formate] |
| 0.1 to 1 µM | > 75% | O=C1CCC(N2Cc3c(cccc3N(CCCCC(F)(F)F)[C@H]3CC[C@H](NCCC(F)(F)F)CC3)C2=O)C(=O)N1 (stereo partly drawn) [Compound 636, 3-(1-oxo-4-{[(1r,4r)-4-[(3,3,3-trifluoropropyl)amino]cyclohexyl](5,5,5-trifluoropentyl)amino}-3H-isoindol-2-yl)piperidine-2,6-dione; trifluoroacetate] |
| < 0.1 µM | > 75% | O=C1CCC(N2Cc3c(cccc3N(CCC3CC3)[C@H]3CC[C@H](NCC4(F)CCC4)CC3)C2=O)C(=O)N1 (stereo partly drawn) [Compound 613, 3-{4-[(2-cyclopropylethyl)[(1r,4r)-4-{[(1-fluorocyclobutyl)methyl]amino}cyclohexyl]amino]-1-oxo-3H-isoindol-2-yl}piperidine-2,6-dione] |
| < 0.1 µM | > 75% | CS(=O)(=O)C1(CN[C@H]2CC[C@H](N(CCC3CC3)c3cccc4c3CN(C3CCC(=O)NC3=O)C4=O)CC2)CC1 (stereo partly drawn) [Compound 615, 3-{4-[(2-cyclopropylethyl)[(1r,4r)-4-{[(1-methanesulfonylcyclopropyl)methyl]amino}cyclohexyl]amino]-1-oxo-3H-isoindol-2-yl}piperidine-2,6-dione; trifluoroacetate] |
